Results: PubChem BioAssay (NCI)
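The compound was tested at five concentrations on cells cultured in 96-well plates, with a 48-hour exposure period. The concentration for 50% growth inhibition is given as GI50. TGI denotes the concentration required for complete inhibition of growth.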

Tests used:
Test in all cases: NCI-60 cell line screen, 48 h
ACHN renal = test system: ACHN renal
MDA-MB-231 breast = test system: MDA-MB-231 breast
MDA-MB-435 = test system: MDA-MB-435
NCI/ADR-RES ovarian = test system: NCI/ADR-RES ovarian
SR leukemia = test system: SR leukemia
EKVX NSCLC = test system: EKVX NSCLC
SF-539 CNS = test system: SF-539 CNS
SNB-75 CNS = test system: SNB-75 CNS
PC-3 prostate = test system: PC-3 prostate
T-47D breast = test system: T-47D breast

## CNC(=O)c1cc(Oc2cccc3nc(NC(=O)Nc4ccc(F)cc4F)ccc23)ccn1
ACHN renal
  GI50: 2.13 µM
  TGI: > 50 µM
MDA-MB-231 breast
  GI50: 1.59 µM
  TGI: > 50 µM
MDA-MB-435
  GI50: 1.5 µM
  TGI: > 50 µM
NCI/ADR-RES ovarian
  GI50: 1.6 µM
  TGI: > 50 µM
SR leukemia
  GI50: 0.41 µM
  TGI: > 50 µM

## COc1ccc(/C=C(\C2=NC(=O)CS2)c2nc3ccccc3[nH]2)cc1
ACHN renal
  TGI: > 100 µM
EKVX NSCLC
  TGI: > 100 µM
SF-539 CNS
  TGI: 41.9 µM
SNB-75 CNS
  TGI: 71.6 µM
SR leukemia
  TGI: > 100 µM

## c1ccc(Sc2nc(Sc3ccccc3)nc(Sc3ccccc3)n2)cc1
ACHN renal
  TGI: > 100 µM
EKVX NSCLC
  TGI: > 100 µM
MDA-MB-231 breast
  TGI: > 100 µM
MDA-MB-435
  TGI: > 100 µM
PC-3 prostate
  TGI: > 100 µM
SF-539 CNS
  TGI: > 100 µM
SR leukemia
  TGI: > 100 µM
T-47D breast
  TGI: 45 µM

## CN1CCN(Cn2nc(-c3cc(F)c(Cl)cc3Cl)oc2=S)CC1
ACHN renal
  GI50: 34.6 µM
  TGI: > 100 µM
EKVX NSCLC
  GI50: > 100 µM
  TGI: > 100 µM
MDA-MB-231 breast
  GI50: 17.8 µM
  TGI: 62.5 µM
MDA-MB-435
  GI50: 40.5 µM
  TGI: > 100 µM
NCI/ADR-RES ovarian
  GI50: 83.6 µM
  TGI: > 100 µM
PC-3 prostate
  GI50: 43 µM
  TGI: > 100 µM
SF-539 CNS
  GI50: 29.9 µM
  TGI: 71.5 µM
SNB-75 CNS
  GI50: 53.3 µM
  TGI: > 100 µM
T-47D breast
  TGI: 27 µM

## COc1cccc2c1C(=O)c1c(O)c3c(c(O)c1C2=O)CC(O)(C(C)=O)CC3O (configuration not stated)
EKVX NSCLC
  TGI: 20.6 µM
NCI/ADR-RES ovarian
  TGI: 22.4 µM
SF-539 CNS
  TGI: 21.3 µM
SNB-75 CNS
  TGI: 32.4 µM

## CN1C(=O)[C@@H]2[C@@H]3c4ccccc4N[C@@H]3c3[nH]c4ccccc4c3[C@@H]2C1=O
ACHN renal
  TGI: 49.9 µM
EKVX NSCLC
  TGI: > 100 µM
MDA-MB-231 breast
  TGI: 63.2 µM
MDA-MB-435
  TGI: 64.7 µM
NCI/ADR-RES ovarian
  TGI: 52 µM
PC-3 prostate
  TGI: 50.5 µM
SF-539 CNS
  TGI: 39.3 µM
SNB-75 CNS
  TGI: 85.8 µM
SR leukemia
  TGI: 59.3 µM

## Cc1ccc(O)cc1 (tested in a mixture with another compound)
ACHN renal
  TGI: > 100 µM
EKVX NSCLC
  TGI: > 100 µM
MDA-MB-231 breast
  TGI: > 100 µM
MDA-MB-435
  TGI: > 100 µM
NCI/ADR-RES ovarian
  TGI: > 100 µM
PC-3 prostate
  TGI: > 100 µM
SF-539 CNS
  TGI: > 100 µM
T-47D breast
  TGI: > 100 µM

## CN(C)CCNC(=O)c1cccc2[nH]c(-c3ccc(Cl)cc3)nc12
EKVX NSCLC
  TGI: 34.3 µM
NCI/ADR-RES ovarian
  TGI: 21 µM
SF-539 CNS
  TGI: 16.9 µM
SNB-75 CNS
  TGI: 15.3 µM

## O=P(Nc1cccc(Cl)c1)(Oc1ccccc1)N(CCCl)CCCl (configuration not stated)
ACHN renal
  TGI: 47.3 µM
EKVX NSCLC
  TGI: 33.9 µM
SF-539 CNS
  TGI: 31.2 µM
SNB-75 CNS
  TGI: 30.4 µM
SR leukemia
  TGI: > 100 µM

## Cc1cc2nc(CC(C(F)(F)F)C(F)(F)F)oc2cc1C
ACHN renal
  TGI: 20.7 µM
EKVX NSCLC
  TGI: 7.6 µM
MDA-MB-231 breast
  TGI: 9.09 µM
MDA-MB-435
  TGI: 5.64 µM
NCI/ADR-RES ovarian
  TGI: > 43.3 µM
PC-3 prostate
  TGI: 5.43 µM
SF-539 CNS
  TGI: 7.66 µM
SNB-75 CNS
  TGI: 16.3 µM
T-47D breast
  TGI: 10.7 µM

## COCC1N=C(c2cc(OC)c(OC)c(OC)c2-c2cc3c(cc2[C@@H](C)O)OCO3)O[C@H]1c1ccccc1 (some centres not stated)
EKVX NSCLC
  TGI: > 95.5 µM
NCI/ADR-RES ovarian
  TGI: > 95.7 µM
SF-539 CNS
  TGI: > 100 µM
SNB-75 CNS
  TGI: > 72.3 µM

## Cc1ccc(S(=O)(=O)NCCCSCCO)cc1
ACHN renal
  TGI: > 100 µM
MDA-MB-231 breast
  TGI: > 100 µM
MDA-MB-435
  TGI: > 100 µM
NCI/ADR-RES ovarian
  TGI: > 100 µM
PC-3 prostate
  TGI: > 100 µM
SNB-75 CNS
  TGI: > 100 µM
SR leukemia
  TGI: > 100 µM
T-47D breast
  TGI: > 100 µM

## O=c1[nH]c(-c2ccc(Cl)cc2)cc2ccsc12
ACHN renal
  TGI: > 100 µM
EKVX NSCLC
  TGI: > 100 µM
NCI/ADR-RES ovarian
  TGI: > 100 µM
PC-3 prostate
  TGI: > 100 µM
SNB-75 CNS
  TGI: 23.2 µM
SR leukemia
  TGI: 12.9 µM
T-47D breast
  TGI: 59.9 µM

## CCOC(=O)C1=C(C)N(c2ccc(Cl)cc2)C2(O)C=CC(Nc3ccc(Cl)cc3)=C3C(=O)N(c4ccccc4)C(=O)C312 (configuration not stated)
ACHN renal
  TGI: 20 µM
MDA-MB-231 breast
  TGI: 35.2 µM
MDA-MB-435
  TGI: 5.29 µM
NCI/ADR-RES ovarian
  TGI: 12.7 µM
PC-3 prostate
  TGI: 22.8 µM
SF-539 CNS
  TGI: 18.3 µM
SNB-75 CNS
  TGI: 20.3 µM
SR leukemia
  TGI: > 100 µM
T-47D breast
  TGI: 19.4 µM
